Source: patent publication US10800772B2 (Gilead Sciences, Inc., priority 2016, dated 2020)
pEC50: −log10 of the molar value.

How the values were obtained:
Type in all cases: cell-based, HIV-1
HIV-IIIb (wildtype) = assay: Antiviral assay in MT4 cells, HIV-IIIb wildtype; conditions: Human immunodeficiency virus 1, IIIB, MT4, 120 h, read-out: WT EC50
Method in brief: (§1)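 MT4 cells were pre-infected 3 h at 37 °C with HIV-IIIb (0.004 m.o.i.): wildtype, or IN T174I virus from breakthrough or from dose-escalation passaging. Cells (2000/well) were exposed to 10-point 3-fold compound dilutions in quadruplicate for 5 days at 37 °C. EC50 was the concentration giving 50% decrease in CellTiter-Glo luminescence.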

HIV-IIIb IN T174I DE = assay: Antiviral assay in MT4 cells, HIV-IIIb IN T174I DE virus (from dose escalation passaging); conditions: Human immunodeficiency virus 1, IIIB, MT4, 120 h, read-out: T174I DE EC50, MT4 cells, HIV-IIIb IN T174I DE (dose escalation), 5 days, CellTiter-Glo
Method in brief: as §1

HIV-IIIb IN T174I BT = assay: Antiviral assay in MT4 cells, HIV-IIIb IN T174I BT virus (from viral breakthrough); conditions: Human immunodeficiency virus 1, IIIB, MT4, 120 h, read-out: T174I BT EC50, MT4 cells, HIV-IIIb IN T174I BT (viral breakthrough), 5 days, CellTiter-Glo
Method in brief: as §1

Compound	pEC50 (HIV-IIIb (wildtype))	pEC50 (HIV-IIIb IN T174I DE)	pEC50 (HIV-IIIb IN T174I BT)
Cc1cc2nc(-c3ccc4c(n3)c(C3CCN(C5COC5)CC3)nn4C3CC3)sc2c(-c2ccc(Cl)cc2)c1[C@H](OC(C)(C)C)C(=O)O [Compound 178, (S)-2-(tert-butoxy)-2-(7-(4-chloro-phenyl)-2-(1-cyclo-propyl-3-(1-(oxetan-3-yl)piperidin-4-yl)-1H-pyrazolo[4,3-b]pyridin-5-yl)-5-methylbenzo[d]thiazol-6-yl) acetic acid]	8.40	6.50	6.92
CCn1nc(C2CCN(C3CN(C(=O)OC)C3)CC2)c2nc(-c3nc4cc(C)c([C@H](OC(C)(C)C)C(=O)O)c(-c5ccc(Cl)cc5)c4s3)ccc21 [Compound 179, (S)-2-(tert-butoxy)-2-(7-(4-chloro-phenyl)-2-(1-ethyl-3-(1-(1-(methoxy-carbonyl)azetidin-3-yl)piperidin-4-yl)-1H-pyrazolo [4,3-b]pyridin-5-yl)-5-methylbenzo [d]thiazol-6-yl) acetic acid]	8.52	6.97	7.55
COC(=O)N1CC(N2CCC(c3nn(C4CC4)c4ccc(-c5nc6cc(C)c([C@H](OC(C)(C)C)C(=O)O)c(-c7ccc(Cl)cc7)c6s5)nc34)CC2)C1 [Compound 180, (S)-2-(tert-butoxy)-2-(7-(4-chloro-phenyl)-2-(1-cyclopropyl-3-(1-(1-(methoxy-carbonyl)azetidin-3-yl)piperidin-4-yl)-1H-pyrazolo [4,3-b]pyridin-5-yl)-5-methylbenzo [d]thiazol-6-yl) acetic acid]	8.40	6.67	7.19
CCn1nc(C2CCN(C3CN(C(C)=O)C3)CC2)c2nc(-c3nc4cc(C)c([C@H](OC(C)(C)C)C(=O)O)c(-c5ccc(Cl)cc5)c4s3)ccc21 [Compound 181, (S)-2-(2-(3-(1-(1-acetylazetidin-3-yl)piperidin-4-yl)-1-ethyl-1H-pyrazolo[4,3-b]pyridin-5-yl)-7-(4-chlorophenyl)-5-methylbenzo [d]thiazol-6-yl)-2-(tert-butoxy) acetic acid]	9.00	7.47	7.92
CC(=O)N1CC(N2CCC(c3nn(C4CC4)c4ccc(-c5nc6cc(C)c([C@H](OC(C)(C)C)C(=O)O)c(-c7ccc(Cl)cc7)c6s5)nc34)CC2)C1 [Compound 182, (S)-2-(2-(3-(1-(1-acetylazetidin-3-yl)piperidin-4-yl)-1-cyclopropyl-1H-pyrazolo[4,3-b]pyridin-5-yl)-7-(4-chlorophenyl)-5-methylbenzo [d]thiazol-6-yl)-2-(tert-butoxy) acetic acid]	8.70	7.23	7.57
CC(=O)N1CC(N2CCC(c3nn(C(F)F)c4ccc(-c5nc6cc(C)c([C@H](OC(C)(C)C)C(=O)O)c(-c7ccc(Cl)cc7)c6s5)nc34)CC2)C1 [Compound 183, (S)-2-(2-(3-(1-(1-acetylazetidin-3-yl)piperidin-4-yl)-1-(difluoromethyl)-1H-pyrazolo [4,3-b]pyridin-5-yl)-7-(4-chloro-phenyl)-5-methylbenzo[d]thiazol-6-yl)-2-(tert-butoxy) acetic acid]	8.70	7.16	7.54
Cc1cc2nc(-c3ccc4c(n3)c(C3CCN([C@H]5C[C@H](O)C5)CC3)nn4C)sc2c(-c2ccc(Cl)cc2)c1[C@H](OC(C)(C)C)C(=O)O [Compound 186, (S)-2-(tert-butoxy)-2-(7-(4-chloro-phenyl)-2-(3-(1-((1r,3r)-3-hydroxy-cyclobutyl)piperidin-4-yl)-1-methyl-1H-pyrazolo[4,3-b]pyridin-5-yl)-5-methylbenzo[d]thiazol-6-yl) acetic acid]	7.54	6.11	6.44
Cc1cc2nc(-c3ccc4c(n3)c(C3CCN(C5CC5)CC3)nn4C)sc2c(-c2ccc(Cl)cc2)c1[C@H](OC(C)(C)C)C(=O)O [Compound 187, (S)-2-(tert-butoxy)-2-(7-(4-chloro-phenyl)-2-(3-(1-cyclopropyl-piperidin-4-yl)-1-methyl-1H-pyrazolo[4,3-b]pyridin-5-yl)-5-methylbenzo[d]thiazol-6-yl) acetic acid]	8.40	6.07	6.47
CC(=O)N1CC(N2CCC(c3c4nc(-c5nc6cc(C)c([C@H](OC(C)(C)C)C(=O)O)c(-c7ccc(Cl)cc7)c6s5)ccc4nn3C(F)F)CC2)C1 [Compound 189, (S)-2-(2-(3-(1-(1-acetylazetidin-3-yl)piperidin-4-yl)-2-(difluoromethyl)-2H-pyrazolo [4,3-b]pyridin-5-yl)-7-(4-chloro-phenyl)-5-methylbenzo[d]thiazol-6-yl)-2-(tert-butoxy) acetic acid]	7.92	5.85	5.99
COC(=O)N1CC(N2CCC(c3c4nc(-c5nc6cc(C)c([C@H](OC(C)(C)C)C(=O)O)c(-c7ccc(Cl)cc7)c6s5)ccc4nn3C(F)F)CC2)C1 [Compound 190, (S)-2-(tert-butoxy)-2-(7-(4-chloro-phenyl)-2-(2-(difluoromethyl)-3-(1-(1-(methoxy-carbonyl)azetidin-3-yl)piperidin-4-yl)-2H-pyrazolo [4,3-b]pyridin-5-yl)-5-methylbenzo [d]thiazol-6-yl) acetic acid]	8.22	5.56	5.75
[2H]C([2H])([2H])n1nc(C2CCN(C3CN(C(=O)OC)C3)CC2)c2nc(-c3nc4cc(C)c([C@H](OC(C)(C)C)C(=O)O)c(-c5ccc(Cl)cc5)c4s3)ccc21 [Compound 191, (S)-2-(tert-butoxy)-2-(7-(4-chloro-phenyl)-2-(3-(1-(1-(methoxycarbonyl)azetidin-3-yl)piperidin-4-yl)-1-(methyl-d3)-1H-pyrazolo[4,3-b]pyridin-5-yl)-5-methylbenzo[d]thiazol-6-yl) acetic acid]	8.70	6.97	7.26
[2H]C([2H])([2H])n1nc(C2CCN(C3CN(C(C)=O)C3)CC2)c2nc(-c3nc4cc(C)c([C@H](OC(C)(C)C)C(=O)O)c(-c5ccc(Cl)cc5)c4s3)ccc21 [Compound 192, (S)-2-(2-(3-(1-(1-acetylazetidin-3-yl)piperidin-4-yl)-1-(methyl-d3)-1H-pyrazolo [4,3-b]pyridin-5-yl)-7-(4-chloro-phenyl)-5-methylbenzo[d]thiazol-6-yl)-2-(tert-butoxy) acetic acid]	9.00	7.26	7.55
COC(=O)N1CC[C@H](N2CCC(c3nn(C)c4ccc(-c5nc6cc(C)c([C@H](OC(C)(C)C)C(=O)O)c(-c7ccc(Cl)cc7)c6s5)nc34)CC2)C1 [Compound 193, (S)-2-(tert-butoxy)-2-(7-(4-chloro-phenyl)-2-(3-(1-((S)-l-(methoxy-carbonyl)pyrrolidin-3-yl)piperidin-4-yl)-1-methyl-1H-pyrazolo[4,3-b]pyridin-5-yl)-5-methylbenzo[d]thiazol-6-yl) acetic acid]	8.52	6.58	7.06
Cc1cc2nc(-c3ccc4c(n3)c(C3CCN(C5COC5)CC3)nn4C(F)F)sc2c(-c2ccc(Cl)cc2)c1[C@H](OC(C)(C)C)C(=O)O [Compound 194, (S)-2-(tert-butoxy)-2-(7-(4-chloro-phenyl)-2-(1-(difluoromethyl)-3-(1-(oxetan-3-yl)piperidin-4-yl)-1H-pyrazolo [4,3-b]pyridin-5-yl)-5-methylbenzo [d]thiazol-6-yl) acetic acid]	8.40	6.52	6.90
Cc1cc2nc(-c3ccc4c(n3)c(N3CCN(C5CS(=O)(=O)C5)CC3)nn4C)sc2c(-c2ccc(Cl)cc2)c1[C@H](OC(C)(C)C)C(=O)O [Compound 198, (S)-2-(tert-butoxy)-2-(7-(4-chloro-phenyl)-2-(3-(4-(1,1-dioxidothietan-3-yl)piperazin-1-yl)-1-methyl-1H-pyrazolo[4,3-b]pyridin-5-yl)-5-methylbenzo[d]thiazol-6-yl) acetic acid]	8.05	5.34	5.98
COC(=O)N1CC(N2CCC(c3cn(C)c4ncc(-c5nc6cc(C)c([C@H](OC(C)(C)C)C(=O)O)c(-c7ccc(Cl)cc7)c6s5)nc34)CC2)C1 [Compound 199, (S)-2-(tert-butoxy)-2-(7-(4-chloro-phenyl)-2-(7-(1-(1-(methoxycarbonyl)azetidin-3-yl)piperidin-4-yl)-5-methyl-5H-pyrrolo[2,3-b]pyrazin-2-yl)-5-methylbenzo[d]thiazol-6-yl) acetic acid]	8.40	6.11	6.83
CC(=O)N1CC(N2CCC(c3cn(C)c4ncc(-c5nc6cc(C)c([C@H](OC(C)(C)C)C(=O)O)c(-c7ccc(Cl)cc7)c6s5)nc34)CC2)C1 [Compound 200, (S)-2-(2-(7-(1-(1-acetylazetidin-3-yl)piperidin-4-yl)-5-methyl-5H-pyrrolo[2,3-b]pyrazin-2-yl)-7-(4-chlorophenyl)-5-methylbenzo [d]thiazol-6-yl)-2-(tert-butoxy) acetic acid]	9.00	6.62	7.05
COC(=O)N1CC[C@@H](N2CCC(c3cn(C)c4ncc(-c5nc6cc(C)c([C@H](OC(C)(C)C)C(=O)O)c(-c7ccc(Cl)cc7)c6s5)cc34)CC2)C1 [Compound 201, (S)-2-(tert-butoxy)-2-(7-(4-chloro-phenyl)-2-(3-(1-((R)-1-(methoxy-carbonyl)pyrrolidin-3-yl)piperidin-4-yl)-1-methyl-1H-pyrrolo[2,3-b]pyridin-5-yl)-5-methylbenzo[d]thiazol-6-yl) acetic acid]	8.15	6.28	7.04
